Values quoted from earlier work in patent US20090047276A1, “METHODS FOR […] OR TISSUE RE[…] A […]” (UNIVERSITY OF WASHINGTON, priority 2007, published 2009).

Legend:
[1] = tested on: GSK-3; conditions: literature values (Ring et al. 2003; Cline et al. 2002); read-out: half-maximal effective concentration [EC50]
[2] = tested on: GSK-3; conditions: literature values (Ring et al. 2003; Cline et al. 2002)

SMILES	EC50 [1]	selectivity for GSK-3 [2]
O=[N+]([O-])c1ccc(NCCNc2ncc(-c3ncc[nH]3)c(-c3ccc(Cl)cc3Cl)n2)nc1 [CHIR-837]	375 nM	> 5,000 fold
